This experiment concerns the target glucan synthase (GS) prepared from Candida albicans MY1055 (Candida albicans, UniProt O13428). As to the kind of experiment: Glucan synthase inhibition (polymerization assay, 96-well). The format is biochemical. As to conditions: GS from C. albicans MY1055; 60 min incubation at 22° C.; read-out: Candida Albicans GS IC50 (converted). Here is the method: The in vitro evaluation of glucan synthase inhibitory activity of compounds was measured in a polymerization assay in 96-well format. Each well contained 100 μL of ^3H-UDPG at 0.5 mM (6000 to 8000 dpm/nmol), 50 mM HEPES pH 7.5 (Sigma), 10% w/v glycerol (Sigma), 1.5 mg/mL bovine serum albumin (Sigma A 9647. Lot 44H0190), 25 mM KF (Fisher), 1 mM EDTA (Gibco ULTRAPURE), 25 μM GTP-γ-S, enzyme sufficient to give 3 to 6 nmoles incorporation during the 60 min incubation at 22° C., and test compound added from wells in 3-fold serial dilutions in 100% DMSO (1 μL/well). The reaction was stopped by the addition of 100 μL of 20% trichloroacetic acid. Plates were chilled for a minimum of 10 min, and precipitated glucan collected by filtration on GF/C plates (Packard UNIFILTER®-96), washed with 5 cycles of water (about 1 mL/well each cycle) using a Packard FILTERMATE HARVESTER. 40 μL/well scintillation fluid (Packard ULTIMA GOLD TM-XR) was added and the sealed plates counted in a WALLAC BETA counter in top-counting mode at an efficiency of approximately 40%.
Stock solutions were stored at 10 mg/mL in DMSO at −20° C. For each new enzyme preparation, the initial titration performed started at 1 mg/mL, which was prepared by making a 10-fold dilution in DMSO (5 μL to 50 μL). 40 μL of this stock was placed in column 12 of a round-bottomed 96-well microtiter plate. 40 μL DMSO was added to columns 1 to 11 in the same row and ten 3-fold serial dilutions performed, by transferring 20 μL from column 12 to column 11 etc., with 4 mixings before each transfer. No test compound was transferred to from column 2 to column 1. Duplicate aliquots of 1 μL of all 12 dilutions were then transferred to the side walls of a 96-well Bioblock 1.1 mL plate (Fisher brand) to create two rows.
Graphs of the primary data were created in PRISM software (the average of two determinations) using PRISM's curve fitting program (sigmoidal dose response non-linear regression). The amount of compound required to inhibit glucan synthase activity by 50% in this assay (IC50−ng/mL) was calculated.
Routine analysis was performed with glucan synthase (GS) prepared from Candida albicans MY1055 by the following procedure: MY1055 was grown in 10 liters YPD medium (10 g yeast extract, 20 g tryptone, 20 g glucose per liter) with vigorous shaking at 30° C., to early stationary phase. Cells were harvested by centrifugation, the pellet was washed and frozen at −70° C. until breakage. Thawed pellets were shaken with an equal volume of breakage buffer (50 mM HEPES pH 7.4, 10% glycerol, 1 mM EDTA, 1 mM PMSF, 1 mM DTT) and 4 times their weight of 0.5 mm acid washed glass beads for 2 hours at 4° C. Extent of breakage was assessed visually at 40× magnification. After low speed centrifugation to remove cell debris, the supernatant was centrifuged at 100,000×g for 60 min. to separate membranes plus ribosomes from cytoplasmic components. Membranes were further washed two additional times with breakage buffer using the same centrifugation conditions and finally suspended in breakage buffer at 25 to 30 mg/mL protein (Biorad) for storage at −70° C. Extraction of GS activity from membranes was performed at a protein concentration of 5 mg/mL in extraction buffer (50 mM NaPO4 pH 7.5, 0.1 M KCl, 0.1M Na citrate, 20% glycerol, 5 μM GTP-γ-S, 1 mM DTT, 1 mM PMSF, 3 μg/mL pepstatin) plus 0.25% W1 by gentle mixing at 4° C. for 60 min, followed by centrifugation at 100,000×g for 60 min. After centrifugation, clear supernatant was removed from a pellet consisting of a hard layer usually with small amounts of gelatinous unextracted membranes above it.
Trapping was initiated immediately by 5-fold dilution in trapping buffer (50 mM HEPES pH 7.5, 10 mM KF, 1 mM EDTA, 2 mg/mL BSA) plus 2.5 mM UDPG and 10 μM GTP-γ-S. After incubation at 25° C. for 60 to 90 minutes, glucan was harvested by low speed centrifugation (3,000×g, 10 min). […]
Sequence of glucan synthase (GS) prepared from Candida albicans MY1055 (O13428 1-1897): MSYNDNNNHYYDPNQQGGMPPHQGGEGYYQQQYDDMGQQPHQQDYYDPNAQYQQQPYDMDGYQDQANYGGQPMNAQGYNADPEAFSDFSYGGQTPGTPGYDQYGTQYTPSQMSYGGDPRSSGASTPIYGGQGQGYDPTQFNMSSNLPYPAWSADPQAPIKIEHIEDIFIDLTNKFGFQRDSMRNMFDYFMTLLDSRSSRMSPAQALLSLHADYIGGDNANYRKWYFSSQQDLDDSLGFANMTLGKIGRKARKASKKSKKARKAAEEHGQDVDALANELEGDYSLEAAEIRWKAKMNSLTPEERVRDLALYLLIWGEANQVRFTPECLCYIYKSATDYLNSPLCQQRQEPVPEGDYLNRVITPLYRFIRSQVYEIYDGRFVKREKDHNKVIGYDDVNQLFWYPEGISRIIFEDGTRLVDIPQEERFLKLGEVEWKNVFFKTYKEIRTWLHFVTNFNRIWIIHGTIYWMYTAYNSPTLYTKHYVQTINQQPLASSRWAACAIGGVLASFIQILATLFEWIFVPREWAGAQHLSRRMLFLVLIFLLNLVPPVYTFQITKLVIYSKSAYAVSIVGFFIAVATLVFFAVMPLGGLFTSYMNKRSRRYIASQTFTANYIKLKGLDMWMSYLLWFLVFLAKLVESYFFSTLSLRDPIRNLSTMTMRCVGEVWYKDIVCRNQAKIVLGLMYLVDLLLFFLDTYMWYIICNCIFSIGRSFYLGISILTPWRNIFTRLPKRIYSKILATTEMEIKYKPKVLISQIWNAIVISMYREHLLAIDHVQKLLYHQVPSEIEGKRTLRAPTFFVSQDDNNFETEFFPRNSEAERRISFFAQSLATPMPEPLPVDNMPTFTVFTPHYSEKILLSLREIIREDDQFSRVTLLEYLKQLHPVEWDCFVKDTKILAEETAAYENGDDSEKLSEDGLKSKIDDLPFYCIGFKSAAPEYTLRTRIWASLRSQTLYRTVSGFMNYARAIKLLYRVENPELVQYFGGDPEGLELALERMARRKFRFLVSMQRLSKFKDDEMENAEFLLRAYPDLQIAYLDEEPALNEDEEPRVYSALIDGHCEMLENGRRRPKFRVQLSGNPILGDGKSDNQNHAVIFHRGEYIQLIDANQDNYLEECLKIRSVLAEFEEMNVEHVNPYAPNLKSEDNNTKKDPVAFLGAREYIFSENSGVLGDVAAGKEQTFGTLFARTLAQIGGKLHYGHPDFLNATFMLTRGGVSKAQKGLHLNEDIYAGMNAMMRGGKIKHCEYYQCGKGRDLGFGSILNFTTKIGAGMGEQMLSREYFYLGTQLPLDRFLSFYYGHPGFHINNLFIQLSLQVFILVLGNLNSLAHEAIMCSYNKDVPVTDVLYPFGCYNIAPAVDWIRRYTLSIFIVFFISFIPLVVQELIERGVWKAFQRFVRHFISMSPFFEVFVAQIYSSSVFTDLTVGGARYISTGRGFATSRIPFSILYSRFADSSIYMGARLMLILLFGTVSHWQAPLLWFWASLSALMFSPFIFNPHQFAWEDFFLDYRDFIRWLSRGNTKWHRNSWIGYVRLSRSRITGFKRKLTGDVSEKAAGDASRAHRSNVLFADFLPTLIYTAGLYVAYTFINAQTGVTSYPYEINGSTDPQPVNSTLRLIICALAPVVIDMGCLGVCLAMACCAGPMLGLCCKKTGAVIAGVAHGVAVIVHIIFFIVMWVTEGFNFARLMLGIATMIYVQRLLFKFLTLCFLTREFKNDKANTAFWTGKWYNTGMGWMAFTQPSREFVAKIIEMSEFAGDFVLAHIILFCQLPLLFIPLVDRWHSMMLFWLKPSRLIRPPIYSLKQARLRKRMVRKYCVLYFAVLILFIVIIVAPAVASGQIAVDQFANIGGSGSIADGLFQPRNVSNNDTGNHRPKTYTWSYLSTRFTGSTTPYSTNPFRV
In the case of `COC(=O)N1CCC(c2ncnn2[C@@H]2C[C@@]34COC[C@](C)([C@@H]3CC[C@H]3C4=CC[C@@]4(C)[C@H](C(=O)O)[C@@](C)([C@H](C)C(C)C)CC[C@]34C)[C@H]2OC[C@](C)(N)C(C)(C)C)CC1` [Example 276, (1S,4aR,6aS,7R,8R,10aR,10bR,12aR,14R,1SR)-15-[[(2R)-2-amino-2,3,3-trimethylbutyl]oxy]-8-[(1R)-1,2-dimethylpropyl]-14-[5-[1-(methoxycarbonyl)-4-piperidinyl]-1H-1,2,4-triazol-1-yl]-1,6,6a,7,8,9,10,10a,10b,11,12,12a-dodecahydro-1,6a,8,10a-tetramethyl-4H-1,4a-propano-2H-phenanthro[1,2-c]pyran-7-carboxylic acid], the concentration for half-maximal inhibition (IC50) (commonly the concentration at which inhibition is half-maximal) is 2.52 nM.
As for `CN[C@@](C)(CO[C@H]1[C@H](n2ncnc2-c2cccs2)C[C@@]23COC[C@]1(C)[C@@H]2CC[C@H]1C3=CC[C@@]2(C)[C@H](C(=O)O)[C@@](C)([C@H](C)C(C)C)CC[C@]12C)C(C)C` [Example 163, (1S,4aR,6aS,7R,8R,10aR,10bR,12aR,14R,15R)-15-[[(2R)-2,3-dimethyl-2-(methylamino)butyl]oxy]-8-[(1R)-1,2-dimethylpropyl]-14-[5-(2-thienyl)-1H-1,2,4-triazol-1-yl]-1,6,6a,7,8,9,10,10a,10b,11,12,12a-dodecahydro-1,6a,8,10a-tetramethyl-4H-1,4a-propano-2H-phenanthro[1,2-c]pyran-7-carboxylic acid], the IC50 is 6.8 nM.
Next, `CN[C@@](C)(CO[C@H]1[C@H](n2ncnc2-c2ccccc2)C[C@@]23COC[C@]1(C)[C@@H]2CC[C@H]1C3=CC[C@@]2(C)[C@H](C(=O)O)[C@@](C)([C@H](C)C(C)C)CC[C@]12C)C(C)C` [Example 150, (1S,4aR,6aS,7R,8R,10aR,10bR,12aR,14R,15R)-15-[[(2R)-2,3-dimethyl-2-(methylamino)butyl]oxy]-8-[(1R)-1,2-dimethylpropyl]-14-(5-phenyl-1H-1,2,4-triazol-1-yl)-1,6,6a,7,8,9,10,10a,10b,11,12,12a-dodecahydro-1,6a,8,10a-tetramethyl-4H-1,4a-propano-2H-phenanthro[1,2-c]pyran-7-carboxylic acid]: 2.74 nM; `CN[C@@](C)(CO[C@H]1[C@H](n2ncnc2C(=O)NC(C)C)C[C@@]23COC[C@]1(C)[C@@H]2CC[C@H]1C3=CC[C@@]2(C)[C@H](C(=O)O)[C@@](C)([C@H](C)C(C)C)CC[C@]12C)C(C)C` [Example 38, (1S,4aR,6aS,7R,8R,10aR,10bR,12aR,14R,15R)-15-[[(2R)-2,3-dimethyl-2-(methylamino)butyl]oxy]-8-[(1R)-1,2-dimethylpropyl]-14-[5-[[(1-methylethyl)amino]carbonyl]-1H-1,2,4-triazol-1-yl]-1,6,6a,7,8,9,10,10a,10b,11,12,12a-dodecahydro-1,6a,8,10a-tetramethyl-4H-1,4a-propano-2H-phenanthro[1,2-c]pyran-7-carboxylic acid]: 17.6 nM; `CC(C)[C@@H](C)[C@@]1(C)CC[C@]2(C)[C@H]3CC[C@@H]4[C@@]5(COC[C@@]4(C)[C@@H](OC[C@](C)(N)C(C)C)[C@H](n4cnc(Br)n4)C5)C3=CC[C@@]2(C)[C@@H]1C(=O)O` [Example 6C, (1S,4aR,6aS,7R,8R,10aR,10bR,12aR,14R,15R)-15-[[(2R)-2-amino-2,3-dimethylbutyl]oxy]-14-(3-bromo-1H-1,2,4-triazol-1-yl)-8-[(1R)-1,2-dimethylpropyl]-1,6,6a,7,8,9,10,10a,10b,11,12,12a-dodecahydro-1,6a,8,10a-tetramethyl-4H-1,4a-propano-2H-phenanthro[1,2-c]pyran-7-carboxylic acid]: 47.4 nM.
The result for `CC(C)[C@@H](C)[C@@]1(C)CC[C@]2(C)[C@H]3CC[C@@H]4[C@@]5(COC[C@@]4(C)[C@@H](OC[C@H](N)C(C)(C)C)[C@H](n4ncnc4C(N)=O)C5)C3=CC[C@@]2(C)[C@@H]1C(=O)O` [Example 97, (1S,4aR,6aS,7R,8R,10aR,10bR,12aR,14R,15R)-14-[5-(aminocarbonyl)-1H-1,2,4-triazol-1-yl]-15-[[(2R)-2-amino-3,3-dimethylbutyl]oxy]-8-[(1R)-1,2-dimethylpropyl]-1,6,6a,7,8,9,10,10a,10b,11,12,12a-dodecahydro-1,6a,8,10a-tetramethyl-4H-1,4a-propano-2H-phenanthro[1,2-c]pyran-7-carboxylic acid] reads 11.7 nM; that for `CC(C)[C@@H](C)[C@@]1(C)CC[C@]2(C)[C@H]3CC[C@@H]4[C@@]5(COC[C@@]4(C)[C@@H](OCC4COCCN4)[C@H](n4ncnc4-c4ccncc4)C5)C3=CC[C@@]2(C)[C@@H]1C(=O)O` (single isomer, unassigned) [Example 303A], 30.7 nM.
Next, `CC(C)[C@@H](C)[C@@]1(C)CC[C@]2(C)[C@H]3CC[C@@H]4[C@@]5(COC[C@@]4(C)[C@@H](OC[C@](C)(N)C(C)(C)C)[C@H](n4ncnc4Br)C5)C3=CC[C@@]2(C)[C@@H]1C(=O)O` [Example 11, (1S,4aR,6aS,7R,8R,10aR,10bR,12aR,14R,15R)-15-[[(2R)-2-amino-2,3,3-trimethylbutyl]oxy]-14-(5-bromo-1H-1,2,4-triazol-1-yl)-8-[(1R)-1,2-dimethylpropyl]-1,6,6a,7,8,9,10,10a,10b,11,12,12a-dodecahydro-1,6a,8,10a-tetramethyl-4H-1,4a-propano-2H-phenanthro[1,2-c]pyran-7-carboxylic acid]: 4.1 nM; `CN[C@@](C)(CO[C@H]1[C@H](n2cnc(N)n2)C[C@@]23COC[C@]1(C)[C@@H]2CC[C@H]1C3=CC[C@@]2(C)[C@H](C(=O)O)[C@@](C)([C@H](C)C(C)C)CC[C@]12C)C(C)C` [Example 5, (1S,4aR,6aS,7R,8R,10aR,10bR,12aR,14R,15R)-14-(3-amino-1H-1,2,4-triazol-1-yl)-15-[[(2R)-2,3-dimethyl-2-(methylamino)butyl]oxy]-8-[(1R)-1,2-dimethylpropyl]-1,6,6a,7,8,9,10,10a,10b,11,12,12a-dodecahydro-1,6a,8,10a-tetramethyl-4H-1,4a-propano-2H-phenanthro[1,2-c]pyran-7-carboxylic acid]: 12 nM; `CC(C)[C@@H](C)[C@@]1(C)CC[C@]2(C)[C@H]3CC[C@@H]4[C@@]5(COC[C@@]4(C)[C@@H](OC[C@](C)(N)C(C)C)[C@H](n4nc(N)nc4-c4ccccc4)C5)C3=CC[C@@]2(C)[C@@H]1C(=O)O` [Example 36, (1S,4aR,6aS,7R,8R,10aR,10bR,12aR,14R,15R)-15-[[(2R)-2-amino-2,3-dimethylbutyl]oxy]-14-(3-amino-5-phenyl-1H-1,2,4-triazol-1-yl)-8-[(1R)-1,2-dimethylpropyl]-1,6,6a,7,8,9,10,10a,10b,11,12,12a-dodecahydro-1,6a,8,10a-tetramethyl-4H-1,4a-propano-2H-phenanthro[1,2-c]pyran-7-carboxylic acid]: 13.7 nM.
In the case of `CC(C)[C@@H](C)[C@@]1(C)CC[C@]2(C)[C@H]3CC[C@@H]4[C@@]5(COC[C@@]4(C)[C@@H](OC[C@](C)(N)C(C)C)[C@H](n4nc(Br)nc4[N+](=O)[O-])C5)C3=CC[C@@]2(C)[C@@H]1C(=O)O` (single isomer, unassigned) [Example 29B], the IC50 is 81.3 nM.

(Values after patent publication US8188085B2, “Antifungal agents” (Merck Sharp & Dohme Corp., priority 2008, dated 2012).)
